According to ChEMBL document CHEMBL1132049, “Synthesis of novel analogues of the delta opioid ligand SNC-80 using REM resin” (Bioorg Med Chem Lett, 1999):

Experiments:
[1] = biological target: T1, Delta-type opioid receptor (Homo sapiens, UniProt P41143); assay: Binding inhibition of [3H]- -naltrindole (0.15 nM) to membranes in CHO cells expressing Opioid receptor delta 1; assay type: cell-based
[2] = biological target: Kappa-type opioid receptor (Cavia porcellus, UniProt P41144); assay: Binding affinity towards Opioid receptor kappa 1 using [3H]- U-69,593 (1.5 nM) as radioligand in guinea pig brain membranes; assay type: cell membranes, Membrane
Kappa-type opioid receptor, sequence (P41144 whole entry): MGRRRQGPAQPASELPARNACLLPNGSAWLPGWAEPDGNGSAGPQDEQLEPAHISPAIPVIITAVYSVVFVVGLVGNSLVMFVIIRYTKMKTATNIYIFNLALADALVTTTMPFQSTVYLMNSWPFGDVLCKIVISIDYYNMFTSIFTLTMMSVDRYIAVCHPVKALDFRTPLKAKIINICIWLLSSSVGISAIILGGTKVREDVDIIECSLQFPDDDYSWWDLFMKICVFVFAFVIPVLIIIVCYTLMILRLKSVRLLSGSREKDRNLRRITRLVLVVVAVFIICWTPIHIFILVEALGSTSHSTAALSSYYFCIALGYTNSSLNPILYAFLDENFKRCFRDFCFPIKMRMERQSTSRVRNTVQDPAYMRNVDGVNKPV

[3] = biological target: Mu-type opioid receptor (Rattus norvegicus, UniProt P33535); assay: Binding affinity towards mu opioid receptor using [3H]- -DAMGO (1.5 nM) as radioligand in rat brain membranes; assay type: cell membranes
Mu-type opioid receptor, sequence (P33535 whole entry): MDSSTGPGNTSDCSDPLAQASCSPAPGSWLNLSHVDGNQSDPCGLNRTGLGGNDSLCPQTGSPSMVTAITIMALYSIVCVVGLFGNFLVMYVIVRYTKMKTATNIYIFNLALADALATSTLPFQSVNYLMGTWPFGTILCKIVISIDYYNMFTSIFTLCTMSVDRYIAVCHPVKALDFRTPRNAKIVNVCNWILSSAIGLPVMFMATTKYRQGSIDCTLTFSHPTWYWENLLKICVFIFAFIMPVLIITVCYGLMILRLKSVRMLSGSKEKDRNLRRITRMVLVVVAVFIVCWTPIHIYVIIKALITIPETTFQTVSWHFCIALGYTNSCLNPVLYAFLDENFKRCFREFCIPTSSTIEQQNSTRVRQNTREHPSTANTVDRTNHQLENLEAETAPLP

[4] = biological target: T1, Delta-type opioid receptor; assay: Compound was tested for inhibition of binding of [3H]- -naltrindole (0.15 nM) to membranes from CHO cells expressing human delta opioid receptor; assay type: cell membranes

T1 sequence (P41143 whole entry): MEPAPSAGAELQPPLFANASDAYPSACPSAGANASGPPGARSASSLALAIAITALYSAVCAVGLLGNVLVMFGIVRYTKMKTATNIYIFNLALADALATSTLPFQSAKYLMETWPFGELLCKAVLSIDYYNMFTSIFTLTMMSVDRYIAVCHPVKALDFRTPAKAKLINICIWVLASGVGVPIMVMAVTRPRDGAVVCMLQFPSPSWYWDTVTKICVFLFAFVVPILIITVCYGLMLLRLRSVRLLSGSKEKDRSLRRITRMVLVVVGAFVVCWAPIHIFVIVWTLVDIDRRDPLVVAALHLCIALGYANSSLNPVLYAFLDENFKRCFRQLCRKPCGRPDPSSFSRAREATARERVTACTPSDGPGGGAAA

Structure (SMILES) | IC50 [1] [nM] | IC50 [2] [nM] | IC50 [3] [nM] | IC50 [4] [nM]
C=CCN1CCN([C@@H](c2ccccc2)c2ccc(C(=O)N(CC)CC)cc2)CC1 | 4.1 | > 10000 | > 10000 | –
C=CCN1CCN([C@H](c2ccc(C(=O)N(CC)CC)cc2)c2cccc(OC)c2)CC1 | 7.4 | > 10000 | > 10000 | –
C=CCN1CCN(C(c2ccccc2)c2ccc(C(=O)N(CC)CC)cc2)CC1 (configuration not stated) | – | – | > 10000 | 5
C=CCN1CCN(C(c2ccccc2)c2ccc(C(=O)Nc3ccc(OC)cc3)cc2)CC1 (configuration not stated) | 1900 | – | – | –
C=CCN1CCN(C(c2ccccc2)c2ccc(-c3cccnc3)cc2)CC1 (configuration not stated) | 500 | – | – | –
C=CCN1CCN(C(c2ccccc2)c2ccc(C(=O)NCC)cc2)CC1 (configuration not stated) | 360 | – | – | –
C=CCN1CCN(C(c2ccccc2)c2ccc(C(=O)N(CCC)CC3CC3)cc2)CC1 (configuration not stated) | 3 | – | > 10000 | –
C=CCN1CCN(C(c2ccccc2)c2ccc(-c3cccs3)cc2)CC1 (configuration not stated) | 2600 | – | – | –
C=CCN1CCN(C(c2ccccc2)c2ccc(C(=O)N3CCCCC3)cc2)CC1 (configuration not stated) | 82.4 | – | > 21600 | –
C=CCN1CCN(C(c2ccccc2)c2ccc(C(=O)O)cc2)CC1 (configuration not stated) | 8100 | – | – | –
C=CCN1CCN(C(c2ccccc2)c2ccc(C(=O)OC)cc2)CC1 (configuration not stated) | 607 | – | – | –
C=CCN1C[C@H](C)N(C(c2ccccc2)c2ccccc2)C[C@H]1C | 420 | – | 380 | –
C=CCN1CCN(C(c2ccccc2)c2ccc(-c3ccccn3)cc2)CC1 (configuration not stated) | 250 | – | – | –
C=CCN1CCN(C(c2ccccc2)c2ccc(C(=O)N(C)C)cc2)CC1 (configuration not stated) | 44.3 | – | > 50000 | –
C=CCN1CCN(C(c2ccccc2)c2ccc(C(=O)N(CCC)CCC)cc2)CC1 (configuration not stated) | 7.2 | – | 41600 | –
C=CCN1CCN(C(c2ccccc2)c2ccc(C(=O)N(Cc3cccnc3)CC(OCCC)OCCC)cc2)CC1 (configuration not stated) | 4 | – | > 10000 | –
C=CCN1CCN(C(c2ccccc2)c2ccc(-c3ccccc3)cc2)CC1 (configuration not stated) | 1720 | – | – | –
C=CCN1CCN(C(c2ccccc2)c2ccc(C(=O)OCC)cc2)CC1 (configuration not stated) | 1390 | – | – | –
C=CCN1C[C@H](C)N([C@H](c2ccccc2)c2ccc(C(=O)N(CC)CC)cc2)C[C@H]1C | 1.1 | > 10000 | 6500 | –
C=CCN1C[C@H](C)N([C@@H](c2ccc(C(=S)N(CC)CC)cc2)c2cccc(OC)c2)C[C@H]1C | 5.3 | 8600 | 6300 | –
C=CCN1C[C@H](C)N([C@@H](c2ccc(C(=O)O)cc2)c2cccc(OC)c2)C[C@H]1C | 450 | – | > 10000 | –
C=CCN1C[C@H](C)N([C@@H](c2ccc(C(=O)OC)cc2)c2cccc(OC)c2)C[C@H]1C | 240 | – | 3600 | –
C=CCN1C[C@H](C)N([C@@H](c2ccc(-c3ccccn3)cc2)c2cccc(OC)c2)C[C@H]1C | 22 | 2100 | 6400 | –
